pIC50: −log10 of the molar value. Where a name gives a salt, the structure may show the parent alone.
What was measured:
GPIIb-IIIa = target: T1, GPIIb-IIIa (Homo sapiens, UniProt P05106+P08514); assay: ELISA IIb-IIIa assay (fibrinogen binding to immobilized GPIIb-IIIa); settings: purified platelet GPIIb-IIIa receptor coated on ELISA plates; biotin-labeled fibrinogen 10 nM, 3 hours at 25° C.
T1 construct: Purified platelet GPIIb-IIIa receptor was prepared as described by Fitzgerald; from tissue; host or cells: platelets
T1 sequence (P08514 32-887 limits assumed): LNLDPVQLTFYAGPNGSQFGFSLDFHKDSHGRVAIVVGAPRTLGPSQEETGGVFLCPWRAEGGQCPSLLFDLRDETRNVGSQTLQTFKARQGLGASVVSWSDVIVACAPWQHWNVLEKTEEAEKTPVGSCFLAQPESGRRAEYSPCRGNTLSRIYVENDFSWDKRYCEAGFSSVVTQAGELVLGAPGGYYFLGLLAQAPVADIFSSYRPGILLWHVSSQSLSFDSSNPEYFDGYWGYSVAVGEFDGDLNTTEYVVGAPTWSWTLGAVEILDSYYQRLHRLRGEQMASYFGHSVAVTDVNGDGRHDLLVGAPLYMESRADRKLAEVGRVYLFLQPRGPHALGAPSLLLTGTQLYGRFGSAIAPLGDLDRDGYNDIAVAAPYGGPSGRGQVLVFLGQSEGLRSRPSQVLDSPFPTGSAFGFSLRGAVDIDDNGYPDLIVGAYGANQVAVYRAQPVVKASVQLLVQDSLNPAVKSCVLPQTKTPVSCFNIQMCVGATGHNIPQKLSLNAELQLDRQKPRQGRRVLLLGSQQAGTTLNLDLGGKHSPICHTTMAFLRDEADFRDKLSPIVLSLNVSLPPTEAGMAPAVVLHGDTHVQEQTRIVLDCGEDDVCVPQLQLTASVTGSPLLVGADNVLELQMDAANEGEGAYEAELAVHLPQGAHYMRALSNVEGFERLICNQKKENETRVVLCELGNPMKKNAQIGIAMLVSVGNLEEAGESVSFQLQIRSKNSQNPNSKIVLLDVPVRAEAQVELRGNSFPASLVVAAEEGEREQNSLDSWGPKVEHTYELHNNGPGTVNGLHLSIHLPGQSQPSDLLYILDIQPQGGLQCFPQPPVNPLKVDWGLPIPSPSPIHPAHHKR
T1 sequence (P05106 27-788): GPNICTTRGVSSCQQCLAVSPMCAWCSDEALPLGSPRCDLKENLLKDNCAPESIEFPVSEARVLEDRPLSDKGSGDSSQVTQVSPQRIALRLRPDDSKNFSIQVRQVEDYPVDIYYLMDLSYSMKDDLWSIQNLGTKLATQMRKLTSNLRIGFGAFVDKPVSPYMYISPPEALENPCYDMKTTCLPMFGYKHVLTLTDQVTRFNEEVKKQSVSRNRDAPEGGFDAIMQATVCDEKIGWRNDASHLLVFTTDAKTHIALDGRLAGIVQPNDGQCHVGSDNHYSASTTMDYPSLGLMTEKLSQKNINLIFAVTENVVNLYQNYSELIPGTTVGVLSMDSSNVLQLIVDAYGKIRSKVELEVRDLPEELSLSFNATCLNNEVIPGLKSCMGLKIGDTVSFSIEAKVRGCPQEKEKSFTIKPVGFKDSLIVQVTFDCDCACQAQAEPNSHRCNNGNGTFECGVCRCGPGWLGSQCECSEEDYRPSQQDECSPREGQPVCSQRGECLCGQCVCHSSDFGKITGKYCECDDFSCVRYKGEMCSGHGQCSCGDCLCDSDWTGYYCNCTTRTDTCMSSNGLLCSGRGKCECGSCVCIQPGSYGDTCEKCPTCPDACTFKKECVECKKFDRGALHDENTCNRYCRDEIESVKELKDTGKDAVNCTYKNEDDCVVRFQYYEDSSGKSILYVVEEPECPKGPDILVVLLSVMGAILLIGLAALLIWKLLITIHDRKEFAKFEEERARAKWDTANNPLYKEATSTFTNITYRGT
Protocol: In the following assay, GPIIb-IIIa is prepared in purified form, by a method such as described by Fitzgerald, L. A., et al., Anal Biochem (1985) 151:169-177, (the disclosure of which is incorporated herein by reference). GPIIb-IIIa is coated onto microtiter plates. The coated support is then contacted with fibrinogen and with the test material (e.g., compounds of Formula I) and incubated for a sufficient time to permit maximal binding of fibrinogen to the immobilized GPIIb-IIIa. Fibrinogen is typically provided at a concentration of about 5-50 nM and the test material can, if desired, be added at a series of dilution. Typical incubations are 2 to 4 hours at 25° C., the time and temperature being interdependent.
After incubation, the solution containing the fibrinogen and test material is removed and the level of binding of fibrinogen measured by quantitating bound fibrinogen to GPIIb-IIIa. Any suitable means of detection may be used, but it is convenient to employ labeled fibrinogen, for example using biotinylated labels. Such methods are well known in the art.
Purified platelet GPIIb-IIIa receptor was prepared as described by Fitzgerald, L. A., et al., Anal Biochem (1985) 151:169-177 (1985). Vitronectin receptor was prepared as described by Smith, J. W., J. Biol Chem (1988) 263:18726-18731. After purification, the receptors were stored in 0.1% Triton X-100 at 0.1-1.0 mg/ml.
The receptors were coated to the wells of 96-well flat-bottom ELISA plates (Linbro EIA-Plus microtiter plate, Flow Laboratories) after diluting 1:200 with a solution of 20 mM Tris-HCl, 150 mM NaCl, 1 mM CaCl2, pH 7.4, to reduce the Triton X-100 concentration to below its critical micellar concentration and adding an aliquot of 100 ul to each well. The wells were all allowed to incubate overnight at 4° C., and then aspirated to dryness. Additional sites were blocked by the addition of bovine serum albumin (BSA) at 35 mg/ml in the above buffer for 2 hours at 30° C. to prevent nonspecific binding. The wells were then washed once with binding buffer ([…] Tris-HCl, 100 mM NaCl 2 mM CaCl2, 1 mg/ml BSA).
The corresponding ligands (fibrinogen, von Willebrand Factor, or vitronectin) were conjugated to biotin using commercially available reagents and standard protocols. The labeled ligands were added to the receptor-coated wells at final concentration of 10 nM (100 ul/well) and incubated for 3 hours at 25° C. in the presence or absence of the test samples. After incubation, the wells are aspirated to dryness and bound ligand is quantitated.
The bound protein is detected by the addition of antibiotin antibody conjugated to alkaline phosphatase followed by addition of substrate (p-nitrophenyl phosphate), and determination of the optical density of each well at […]. Decreased color development is observed in wells incubated with test samples which inhibit binding of ligand to receptor.

[1] = system: human platelet-rich plasma; assay: Platelet aggregation assay (Aggregation-Human PRP/ADP); assay type: cell-based; settings: 1 min; human platelet-rich plasma incubated with compound 1 minute at 37° C.; ADP-induced aggregation; read-out: Agg: Human PRP/ADP IC50uM
Protocol: Platelet-rich plasma was prepared from healthy human volunteers for use in determining inhibition of platelet aggregation by the compounds.
Platelet-rich plasma was prepared at room temperature by centrifugation of the citrated whole blood at 100×g for 12 minutes. The platelet rich plasma contained approximately 200-400,000 platelets/μl.
Platelet-poor plasma was prepared by centrifugation of citrated whole blood at 12,000×g for 2 minutes.
Platelet aggregation was assayed in a 4-channel platelet aggregation profiler (PAP-4, Biodata, Hatboro, Pa.) according to the manufacturers directions. Inhibition of platelet aggregation was studied by adding varying amounts of […] to stirred human platelet-rich plasma. Specifically, the human platelet-rich plasma was incubated with the compound being tested for 1 minute at 37° C. prior to the addition of a variety of aggregating agents most often ADP 5 μM, but also 1 μg/ml collagen, 1 μM U46619 and 0.3 μM platelet activating factor.

Structure (SMILES)	pIC50 (GPIIb-IIIa)	pIC50 [1]
N=C(N)c1ccc(COc2ccc3c(c2)CCN(C(CC(=O)O)C(=O)NCc2ccccc2)C3=O)cc1 (racemic) [Example 6, (+−)-6-[[4-(Aminoiminomethyl)phenyl]methoxy]-3,4-dihydro-1-oxo-beta-[[(phenylmethyl)amino]carbonyl]-2(1H)-isoquinoline Propanoic Acid Trifluoroacetate]	7.30	6.15
COc1ccc(CCNC(=O)C(CC(=O)O)N2CCc3cc(OCc4ccc(C(=N)N)cc4)ccc3C2=O)cc1 (racemic) [Example 7, (+−)-6-[[4-(Aminoiminomethyl)phenyl]methoxy]-3,4-dihydro-1-oxo-beta-[[(4-methoxyphenyl Ethyl)amino]carbonyl]-2(1H)-isoquinoline Propanoic Acid Trifluoroacetate]	7.82	5.70
CNC(=O)C(CC(=O)O)N1CCc2cc(OCc3ccc(C(=N)N)cc3)ccc2C1=O (racemic) [Example 8, (+−)-6-[[4-(Aminoiminomethyl)phenyl]methoxy]-3,4-dihydro-beta-[(methylamino)carbonyl]-1-oxo-2(1H)-isoquinoline Propanoic Acid Trifluoroacetate]	7.10	6.26
N=C(N)c1ccc(COc2ccc3c(c2)CCN(C(CC(=O)O)C(=O)NCCC(=O)O)C3=O)cc1 (racemic) [Example 9, (+−)-6-[[4-(Aminoiminomethyl)phenyl]methoxy]-beta-[[(2-carboxyethyl)amino]carbonyl-3,4-dihydro-1-oxo-2(1H)-isoquinoline Propanoic Acid Trifluoroacetate]	7.07	6.07
CCOCCCC(CC(=O)O)N1CCc2cc(OCc3ccc(C(=N)N)cc3)ccc2C1=O (racemic) [Example 10, (+−)-6-[[4-(Aminoiminomethyl)phenyl]methoxy]-b-(3-ethoxypropyl)-3,4-dihydro-1-oxo-2(1H)-isoquinoline Propanoic Acid Trifluoroacetate]	7.21	6.33
CCCCC(CC(=O)O)N1CCc2cc(OCc3ccc(C(=N)N)cc3)ccc2C1=O (racemic) [Example 11, (+−)-6-[[4-(Aminoiminomethyl)phenyl]methoxy]-b-butyl-3,4-dihydro-1-oxo-2(1H)-isoquinoline Propanoic Acid Trifluoroacetate]	7.40	6.22
CCCCCC(CC(=O)O)N1CCc2cc(OCc3ccc(C(=N)N)cc3)ccc2C1=O (racemic) [Example 12, (+−)-6-[[4-(Aminoiminomethyl)phenyl]methoxyl]-3,4-dihydro-1-oxo-b-pentyl-2(1H)-isoquinolinepropanoic Acid Trifluoroacetate]	7.62	6.24
CCC(CC(=O)O)N1CCc2cc(OCc3ccc(C(=N)N)cc3)ccc2C1=O (racemic) [Example 14, (+−)-6-[[4-(Aminoiminomethyl)phenyl]methoxy]b-ethyl-3,4-dihydro-1-oxo-2(1H)-isoquinoline Propanoic Acid Trifluoroacetate]	7.35	6.40
CCCC(CC(=O)O)N1CCc2cc(OCc3ccc(C(=N)N)cc3)ccc2C1=O (racemic) [Example 15, (+−)-6-[[4-(Aminoiminomethyl)phenyl]methoxy]-3,4-dihydro-1-oxo-b-propyl-2 (1H)-isoquinoline Propanoic Acid Trifluoroacetate]	6.30	6.64
N=C(N)c1ccc(COc2ccc3c(c2)CCN(C(CC(=O)O)c2ccccc2)C3=O)cc1 (racemic) [Example 16, (+−)-6-[[4-(Aminoiminomethyl)phenyl]methoxy]-3,4-dihydro-1-oxo-b-phenyl-(1H)-isoquinoline Propanoic Acid Trifluoroacetate]	8.15	6.70
N=C(N)c1ccc(COc2ccc3c(c2)CCC(CC(=O)O)C3)cc1 (racemic) [Example 20, (+−)-6-[[(4-Aminoimidomethyl)phenyl]methoxy]-1,2,3,4-tetrahydronapthylene-2-acetic Acid Trifluoroacetate]	6.52	4.70
N=C(N)c1ccc(COc2ccc3c(c2)CCC(CC(=O)O)O3)cc1 (racemic) [Example 46, rac-(6-(4-(Aminoiminomethyl)phenylmethoxy)-3,4-dihydro-2H-1-benzopyran-2-yl)acetic Acid Trifluoroacetate]	8.48	5.60
CCOC(=O)CC1CCc2cc(NC(=O)c3ccc(C(=N)N)cc3)ccc2O1 (racemic) [Example 47, Hydrochloride]	6.11	6.62
N=C(N)c1ccc(C(=O)Nc2ccc3c(c2)CCC(CC(=O)O)O3)cc1 (racemic) [Example 48, rac-(6-(N-(4-(Aminoiminomethyl)benzoyl)amino)-3,4-dihydro-2H-1-benzopyran-2-yl)acetic Acid]	8.40	7.18
